Legend:
Format in all cases: in vivo
[1] = tested on: Abutilon theophrasti; experiment: Test Example 4: herbicidal effect by soil treatment (symbol M); conditions: application herbicide amount 320 g/ha
In short: (§1)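 Seeds were sown in sterilized diluvial soil, covered with about 1.5 cm of soil, and the soil surface was sprayed with a water-diluted emulsion of the compound at a predetermined rate. Plants grew in a greenhouse at 25° C. to 30° C.; effects were scored visually 3 weeks after application.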

[2] = tested on: Monochoria vaginalis; experiment: Test Example 2: herbicidal activity, application during weed generation in submerged conditions (symbol C); conditions: Table 23; application herbicide amount 320 g/ha; grade 0-5 by criteria of Test Example 1
In short: (§2)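 Paddy pot test, submerged (4 cm water), alluvial soil, mixed sowing; greenhouse 25–30° C. Emulsion formulation diluted to predetermined rate, applied onto floodwater at 1–2 leaf stage. Visual herbicidal rating at 3 wk post-treatment.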

[3] = tested on: transplanted rice plant; experiment: Test Example 1: effect on crop, application before weed generation in submerged conditions (symbol a); conditions: application herbicide amount 320 g/ha
In short: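 Rice at 2.5 leaf stage transplanted into submerged soil (4 cm depth) sown with three weed species; herbicide applied before weed emergence.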

[4] = tested on: Echinochloa oryzacola Vasing.; experiment: Test Example 1: herbicidal activity, application before weed generation in submerged conditions (symbol A); conditions: application herbicide amount 320 g/ha
In short: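 Steps: alluvial soil flooded to 4 cm; weed seeds sown together; rice seedlings (2.5 leaf) transplanted; diluted emulsion applied to water surface the same day as sowing; plants grown at 25–30 °C in greenhouse; herbicidal effect rated on a 0–5 scale at 3 weeks.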

[5] = tested on: corn; experiment: Test Example 5: effect on crop by foliage application, plastic box (symbol c); conditions: 320 g/ha, 3 weeks after application
In short: (§3)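 Sterilized diluvial soil, plastic box (21 × 13 × 7 cm); spot sowing, ~1.5 cm soil cover; greenhouse 25–30° C.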

[6] = tested on: Amaranthus retroflexus; experiment: Test Example 5: herbicidal effect by foliage application, plastic box (symbol N); conditions: 320 g/ha, 3 weeks after application
In short: (§4)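 Herbicide, formulated as an emulsion and diluted in water, is sprayed onto the aerial parts of 14-day seedlings. These were grown at 25° C. to 30° C. in sterilized diluvial soil; effects are graded after 3 weeks.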

[7] = tested on: Scirpus juncoides; experiment: Test Example 2: herbicidal activity, application during weed generation in submerged conditions (symbol B); conditions: Table 23; application herbicide amount 320 g/ha; grade 0-5 by criteria of Test Example 1
In short: as §2

[8] = tested on: Echinochloa crus-galli var. crus-galli; experiment: Test Example 4: herbicidal effect by soil treatment (symbol H); conditions: application herbicide amount 320 g/ha
In short: as §1

[9] = tested on: Veronica persica; experiment: Test Example 4: herbicidal effect by soil treatment (symbol R); conditions: application herbicide amount 320 g/ha
In short: as §1

[10] = tested on: Chenopodium album; experiment: Test Example 4: herbicidal effect by soil treatment (symbol O); conditions: application herbicide amount 320 g/ha
In short: as §1

[11] = tested on: Setaria viridis; experiment: Test Example 5: herbicidal effect by foliage application, plastic box (symbol G); conditions: 320 g/ha, 3 weeks after application
In short: as §4

[12] = tested on: Cyperus difformis; experiment: Test Example 3: herbicidal effect by foliage application, Wagner pot (symbol E); conditions: application herbicide amount 320 g/ha
In short: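 Foliar spray of water-diluted emulsion formulation at a predetermined herbicide amount onto 14-day-old plants in flooded alluvial soil (water depth 0.1–0.5 cm), greenhouse 25–30 °C; rice sown alongside. Scored 3 wk post-application on set criteria.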

[13] = tested on: soybean; experiment: Test Example 5: effect on crop by foliage application, plastic box (symbol d); conditions: 320 g/ha, 3 weeks after application
In short: as §3

| Compound | Herbicidal effect grade, M: Abutilon theophrasti [1] | Herbicidal effect grade, C: Monochoria vaginalis [2] | Effect grade on crop, a: transplanted rice plant [3] | Herbicidal effect grade, A: Echinochloa oryzacola Vasing. [4] | c: corn, effect on crop (criteria of Test Example 1) [5] | N: Amaranthus retroflexus, herbicidal effect (criteria of Test Example 1) [6] | Herbicidal effect grade, B: Scirpus juncoides [7] | Herbicidal effect grade, H: Echinochloa crus-galli var. crus-galli [8] | Herbicidal effect grade, R: Veronica persica [9] | Herbicidal effect grade, O: Chenopodium album [10] | G: Setaria viridis, herbicidal effect (criteria of Test Example 1) [11] | herbicidal effect on E, grade 0-5 [12] | d: soybean, effect on crop (criteria of Test Example 1) [13] | M: Abutilon theophrasti, herbicidal effect grade [1] | H: Echinochloa crus-galli var. crus-galli, herbicidal effect grade [8] | R: Veronica persica, herbicidal effect grade [9] | O: Chenopodium album, herbicidal effect grade [10] |
| --- | --- | --- | --- | --- | --- | --- | --- | --- | --- | --- | --- | --- | --- | --- | --- | --- | --- |
| CON=C(C)CC1CC(O)=C(c2c(C)cccc2C)C1=O (centres unmarked) [6-112] | 1 (Herbicidal ratio of 5% or higher and lower than 20%) | 0 (Herbicidal ratio of 5% or lower (almost no effect)) | 4 (Herbicidal ratio of 70% or higher and lower than 90%) | 5 (Herbicidal ratio of 90% or more (almost completely withered)) | 5 (Herbicidal ratio of 90% or more (almost completely withered)) | 1 (Herbicidal ratio of 5% or higher and lower than 20%) | 0 (Herbicidal ratio of 5% or lower (almost no effect)) | 5 (Herbicidal ratio of 90% or more (almost completely withered)) | 0 (Herbicidal ratio of 5% or lower (almost no effect)) | 0 (Herbicidal ratio of 5% or lower (almost no effect)) | 5 (Herbicidal ratio of 90% or more (almost completely withered)) | 4 (Herbicidal ratio of 70% or higher and lower than 90%) | 3 (Herbicidal ratio of 40% or higher and lower than 70%) | – | – | – | – |
| CON=C(C)CC1CC(OC(=O)N2CCOCC2)=C(c2c(C)cc(-c3ccc(F)cc3)cc2C)C1=O (mixture of isomers) [6-059] | – | 4 (Herbicidal ratio of 70% or higher and lower than 90%) | 5 (Herbicidal ratio of 90% or more (almost completely withered)) | 5 (Herbicidal ratio of 90% or more (almost completely withered)) | 5 (Herbicidal ratio of 90% or more (almost completely withered)) | 5 (Herbicidal ratio of 90% or more (almost completely withered)) | 4 (Herbicidal ratio of 70% or higher and lower than 90%) | – | – | – | 5 (Herbicidal ratio of 90% or more (almost completely withered)) | 5 (Herbicidal ratio of 90% or more (almost completely withered)) | 0 (Herbicidal ratio of 5% or lower (almost no effect)) | 0 (Herbicidal ratio of 5% or lower (almost no effect)) | 2 (Herbicidal ratio of 20% or higher and lower than 40%) | 3 (Herbicidal ratio of 40% or higher and lower than 70%) | 0 (Herbicidal ratio of 5% or lower (almost no effect)) |
| CON=C(C)CC1CC(OC(=O)COc2ccccc2)=C(c2c(C)cc(-c3ccccc3)cc2OC)C1=O (centres unmarked) [6-100] | 4 (Herbicidal ratio of 70% or higher and lower than 90%) | 5 (Herbicidal ratio of 90% or more (almost completely withered)) | 5 (Herbicidal ratio of 90% or more (almost completely withered)) | 5 (Herbicidal ratio of 90% or more (almost completely withered)) | 5 (Herbicidal ratio of 90% or more (almost completely withered)) | 4 (Herbicidal ratio of 70% or higher and lower than 90%) | 5 (Herbicidal ratio of 90% or more (almost completely withered)) | 5 (Herbicidal ratio of 90% or more (almost completely withered)) | 5 (Herbicidal ratio of 90% or more (almost completely withered)) | 5 (Herbicidal ratio of 90% or more (almost completely withered)) | 5 (Herbicidal ratio of 90% or more (almost completely withered)) | 5 (Herbicidal ratio of 90% or more (almost completely withered)) | 3 (Herbicidal ratio of 40% or higher and lower than 70%) | – | – | – | – |
| CC(=O)CC1CC(O)=C(c2c(C)cc(-c3ccccc3)cc2C)C1=O (centres unmarked) [7-004] | 3 (Herbicidal ratio of 40% or higher and lower than 70%) | 0 (Herbicidal ratio of 5% or lower (almost no effect)) | 5 (Herbicidal ratio of 90% or more (almost completely withered)) | 5 (Herbicidal ratio of 90% or more (almost completely withered)) | 5 (Herbicidal ratio of 90% or more (almost completely withered)) | 0 (Herbicidal ratio of 5% or lower (almost no effect)) | 0 (Herbicidal ratio of 5% or lower (almost no effect)) | 5 (Herbicidal ratio of 90% or more (almost completely withered)) | 0 (Herbicidal ratio of 5% or lower (almost no effect)) | 0 (Herbicidal ratio of 5% or lower (almost no effect)) | 4 (Herbicidal ratio of 70% or higher and lower than 90%) | 5 (Herbicidal ratio of 90% or more (almost completely withered)) | 4 (Herbicidal ratio of 70% or higher and lower than 90%) | – | – | – | – |
| CON=C(C)CC1CC(OS(=O)(=O)N(C)C)=C(c2c(C)cc(C)cc2OC)C1=O (centres unmarked) [6-095] | 5 (Herbicidal ratio of 90% or more (almost completely withered)) | 2 (Herbicidal ratio of 20% or higher and lower than 40%) | 5 (Herbicidal ratio of 90% or more (almost completely withered)) | 5 (Herbicidal ratio of 90% or more (almost completely withered)) | 5 (Herbicidal ratio of 90% or more (almost completely withered)) | 0 (Herbicidal ratio of 5% or lower (almost no effect)) | 3 (Herbicidal ratio of 40% or higher and lower than 70%) | 5 (Herbicidal ratio of 90% or more (almost completely withered)) | 0 (Herbicidal ratio of 5% or lower (almost no effect)) | 0 (Herbicidal ratio of 5% or lower (almost no effect)) | 5 (Herbicidal ratio of 90% or more (almost completely withered)) | 5 (Herbicidal ratio of 90% or more (almost completely withered)) | 3 (Herbicidal ratio of 40% or higher and lower than 70%) | – | – | – | – |

Source: patent US11000033B2, “Ketone or oxime compound, and herbicide” (NISSAN CHEMICAL CORPORATION, priority 2014, dated 2021)
